System: aldosterone
Experiment: antialdosterone effect, experimental model by Hollmann
Assay type: in vivo
Conditions: relative to spironolactone = 1
Description: The antialdosterone effect was determined and measured in an experimental model by Hallmann (G. Hollmann et al, Tubular Effects and Renal Elimination of Spirono- lactones, Naunyn-Schmiedebergs Arch. Exp. Path. Pharmak. 247 (1964), p 419; P. Marx, Renal Effects of d-aldosterone and Its Antagonist Spironolactone, Diss. Med. Fak. FU Berlin, 1966 whose disclosure is incorporated by references herein).

Compound: CC(=O)S[C@@H]1CC2=CC(=O)CC[C@]2(C)[C@H]2CC[C@@]3(C)[C@@H](CC[C@@]34CCC(=O)O4)[C@H]12 [spironolactone]
- relative values of the degree of antialdosterone effect: 1
